Measurements: ChEMBL document CHEMBL3751685, “Borrelidin Induces the Unfolded Protein Response in Oral Cancer Cells and Chop-Dependent Apoptosis” (ACS Med Chem Lett, 2015)
Calls of active or inactive are those of the source. No cut-off for these calls is given here.

Key:
UMSCC1 [1] = assay: Inhibition of cell proliferation in human UMSCC1 cells for 24 hrs by Celltiter Glo assay; type: functional, cell-based
[2] = molecular target: T1, Threonine--tRNA ligase 1, cytoplasmic (Homo sapiens) (UniProt P26639); assay: Inhibition of ThRS in human UMSCC1 cells assessed as increase in CHOP mRNA level at 5 uM after 6 hrs by RT-qPCR analysis; type: cell-based
T1 sequence (whole entry): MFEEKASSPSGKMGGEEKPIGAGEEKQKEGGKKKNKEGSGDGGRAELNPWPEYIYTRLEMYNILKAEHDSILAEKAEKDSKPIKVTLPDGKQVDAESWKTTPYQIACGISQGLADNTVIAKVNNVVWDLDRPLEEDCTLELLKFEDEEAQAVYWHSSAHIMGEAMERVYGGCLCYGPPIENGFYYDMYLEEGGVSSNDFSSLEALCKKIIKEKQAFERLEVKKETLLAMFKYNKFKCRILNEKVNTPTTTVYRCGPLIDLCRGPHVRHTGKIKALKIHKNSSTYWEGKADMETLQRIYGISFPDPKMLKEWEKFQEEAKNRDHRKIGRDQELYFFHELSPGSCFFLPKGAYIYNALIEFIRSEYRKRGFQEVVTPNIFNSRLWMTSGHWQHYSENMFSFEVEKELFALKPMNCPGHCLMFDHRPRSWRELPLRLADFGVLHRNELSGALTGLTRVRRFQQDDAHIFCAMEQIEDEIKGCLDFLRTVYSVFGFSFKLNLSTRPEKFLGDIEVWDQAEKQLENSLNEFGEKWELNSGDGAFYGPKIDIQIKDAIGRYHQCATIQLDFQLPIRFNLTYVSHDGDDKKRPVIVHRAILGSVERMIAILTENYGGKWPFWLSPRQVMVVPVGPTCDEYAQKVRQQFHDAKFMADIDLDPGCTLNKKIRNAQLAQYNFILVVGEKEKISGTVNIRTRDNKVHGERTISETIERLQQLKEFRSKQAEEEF

[3] = molecular target: T1, Threonine--tRNA ligase 1, cytoplasmic (Homo sapiens); assay: Inhibition of ThRS in human UMSCC1 cells assessed as increase in ATF3 mRNA level at 5 uM after 6 hrs by RT-qPCR analysis; type: cell-based
[4] = molecular target: T1, Threonine--tRNA ligase 1, cytoplasmic (Homo sapiens); assay: Inhibition of ThRS in human UMSCC1 cells assessed as increase in ATF4 mRNA level at 5 uM after 6 hrs by RT-qPCR analysis; type: cell-based
[5] = molecular target: T1, Threonine--tRNA ligase 1, cytoplasmic (Homo sapiens); assay: Inhibition of ThRS in human UMSCC1 cells assessed as increase in XBP1 splicing by RT-PCR analysis; type: cell-based
UMSCC14A = assay: Inhibition of cell proliferation in human UMSCC14A cells for 24 hrs by Celltiter Glo assay; type: functional, cell-based
UMSCC23 = assay: Inhibition of cell proliferation in human UMSCC23 cells for 24 hrs by Celltiter Glo assay; type: functional, cell-based
[6] = Cytotoxicity against HEK cells after 24 hrs by CelltiterGlo assay; type: cell-based; settings: human, hek293, 24 h
[7] = molecular target: T1, Threonine--tRNA ligase 1, cytoplasmic (Homo sapiens); assay: Inhibition of ThRS in human UMSCC1 cells assessed as increase in UPR-related gene expression at 10 uM by RT-PCR analysis; type: cell-based
[8] = molecular target: T1, Threonine--tRNA ligase 1, cytoplasmic (Homo sapiens); assay: Inhibition of ThRS in human UMSCC1 cells assessed as increase in DNA damaging-related gene expression at 10 uM by RT-PCR analysis; type: cell-based
[9] = molecular target: T1, Threonine--tRNA ligase 1, cytoplasmic (Homo sapiens); assay: Inhibition of ThRS in human UMSCC1 cells assessed as increase in apoptosis-related gene expression at 10 uM by RT-PCR analysis; type: cell-based
UMSCC1 [10] = assay: Effect on Bip/GRP78 mRNA level in human UMSCC1 cells at 5 uM after 6 hrs by RT-qPCR analysis; type: functional, cell-based
A549 = assay: Inhibition of cell proliferation in human A549 cells expressing BAX/BAK (-/-) after 24 hrs by CelltiterGlo assay; type: functional, cell-based
MEF [11] = assay: Inhibition of cell proliferation in mouse MEF cells expressing eIF2alpha Ser51Ala mutant after 16 hrs Celltiter Glo assay; type: functional, cell-based
MEF [12] = assay: Inhibition of cell proliferation in mouse MEF cells expressing Chop(-/-) after 16 hrs Celltiter Glo assay; type: functional, cell-based
MEF [13] = assay: Inhibition of cell proliferation in mouse MEF cells expressing Atf4(-/-) after 16 hrs CelltiterGlo assay; type: functional, cell-based
MEF [14] = assay: Inhibition of cell proliferation in mouse MEF cells expressing Hri(-/-) after 16 hrs CelltiterGlo assay; type: functional, cell-based
MEF [15] = assay: Inhibition of cell proliferation in mouse MEF cells expressing Pkr(-/-) after 16 hrs CelltiterGlo assay; type: functional, cell-based
[16] = molecular target: T2, Threonine--tRNA ligase 1, cytoplasmic (Mus musculus) (UniProt Q9D0R2); settings: MEF, 5 uM
T2 sequence (whole entry): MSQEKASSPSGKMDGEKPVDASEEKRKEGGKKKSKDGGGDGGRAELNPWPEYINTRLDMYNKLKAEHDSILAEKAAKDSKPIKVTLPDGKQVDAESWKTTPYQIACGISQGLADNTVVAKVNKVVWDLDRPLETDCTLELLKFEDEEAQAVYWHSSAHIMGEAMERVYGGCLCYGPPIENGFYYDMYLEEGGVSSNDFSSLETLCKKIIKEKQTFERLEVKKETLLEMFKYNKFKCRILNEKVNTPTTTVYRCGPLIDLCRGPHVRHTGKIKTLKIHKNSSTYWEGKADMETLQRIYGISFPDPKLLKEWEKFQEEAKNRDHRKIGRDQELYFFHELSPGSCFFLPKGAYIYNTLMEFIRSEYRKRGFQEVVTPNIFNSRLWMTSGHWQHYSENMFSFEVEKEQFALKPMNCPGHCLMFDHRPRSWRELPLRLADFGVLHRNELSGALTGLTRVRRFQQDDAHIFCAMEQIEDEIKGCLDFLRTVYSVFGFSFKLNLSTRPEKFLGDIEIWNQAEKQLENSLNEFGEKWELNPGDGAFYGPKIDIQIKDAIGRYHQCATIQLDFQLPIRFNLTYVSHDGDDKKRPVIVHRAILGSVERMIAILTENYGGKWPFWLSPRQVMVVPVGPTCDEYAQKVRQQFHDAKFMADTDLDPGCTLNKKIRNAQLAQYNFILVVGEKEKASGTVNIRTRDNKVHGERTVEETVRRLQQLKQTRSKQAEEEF
Description: Inhibition of ThRs in mouse MEF cells expressing Perk (-/-) assessed as effect on phosphorylated eIF2alpha level at 5 uM by immunoblot analysis

[17] = molecular target: T2, Threonine--tRNA ligase 1, cytoplasmic (Mus musculus); settings: MEF, 5 uM; remark: listed apart in the source
Description: Inhibition of ThRs in mouse MEF cells expressing Perk (-/-) assessed as effect on Chop level at 5 uM by immunoblot analysis

[18] = molecular target: T2, Threonine--tRNA ligase 1, cytoplasmic (Mus musculus); settings: MEF, 5 uM; remark: listed apart in the source
Description: Inhibition of ThRs in mouse MEF cells expressing Gcn2 (-/-) assessed as effect on phosphorylated eIF2alpha level at 5 uM by immunoblot analysis

[19] = molecular target: T2, Threonine--tRNA ligase 1, cytoplasmic (Mus musculus); settings: MEF, 5 uM; remark: listed apart in the source
Description: Inhibition of ThRs in mouse MEF cells expressing Gcn2 (-/-) assessed as effect on Chop level at 5 uM by immunoblot analysis

[20] = molecular target: T2, Threonine--tRNA ligase 1, cytoplasmic (Mus musculus); settings: MEF, 5 uM; remark: listed apart in the source
Description: Inhibition of ThRs in mouse MEF cells expressing Gcn2 (-/-) assessed as effect on Noxa mRNA level at 5 uM by RT-PCR analysis

[21] = molecular target: T2, Threonine--tRNA ligase 1, cytoplasmic (Mus musculus); settings: MEF, 5 uM; remark: listed apart in the source
Description: Inhibition of ThRs in mouse MEF cells expressing Gcn2 (-/-) assessed as effect on Puma mRNA level at 5 uM by RT-PCR analysis

[22] = molecular target: T2, Threonine--tRNA ligase 1, cytoplasmic (Mus musculus); settings: MEF, 5 uM; remark: listed apart in the source
Description: Inhibition of ThRs in mouse MEF cells expressing Gcn2 (-/-) assessed as effect on Gadd45beta mRNA level at 5 uM by RT-PCR analysis

[23] = molecular target: T2, Threonine--tRNA ligase 1, cytoplasmic (Mus musculus); settings: MEF, 5 uM; remark: listed apart in the source
Description: Inhibition of ThRs in mouse MEF cells expressing Gcn2 (-/-) assessed as effect on Trb3 mRNA level at 5 uM by RT-PCR analysis

[24] = molecular target: T2, Threonine--tRNA ligase 1, cytoplasmic (Mus musculus); settings: MEF, 5 uM; remark: listed apart in the source
Description: Inhibition of ThRs in mouse MEF cells expressing Gcn2 (-/-) assessed as effect on Dr5 mRNA level at 5 uM by RT-PCR analysis

Structure (SMILES) | inhibition (UMSCC1 [1]) | Activity [2] | Activity [3] | Activity [4] | Activity [5] | inhibition (UMSCC14A) | inhibition (UMSCC23) | Activity [6] | Activity [7] | Activity [8] | Activity [9] | Activity (UMSCC1 [10]) | other results
CC(=O)NC/C1=C/C=C/C[C@@H]([C@@H]2CCC[C@H]2C(N)=O)OC(=O)C[C@H](O)[C@@H](C)C[C@@H](C)C[C@@H](C)C[C@H](C)[C@H]1O | inactive | inactive | inactive | inactive | inactive | inactive | inactive | Toxic | inactive | inactive | inactive | – | –
C[C@@H]1C[C@H](C)C[C@H](C)[C@@H](O)CC(=O)O[C@H]([C@@H]2CCC[C@H]2C(N)=O)C/C=C/C=C(/C#N)[C@H](O)[C@@H](C)C1 | Active | Active | Active | Active | Active | Active | Active | Toxic | inactive | inactive | inactive | inactive | –
C[C@@H]1C[C@H](C)C[C@H](C)[C@@H](O)CC(=O)O[C@H]([C@@H]2CCC[C@H]2C(=O)O)C/C=C/C=C(/C#N)[C@H](O)[C@@H](C)C1 [BORRELIDIN] | Active | Active | Active | Active | Active | Active | Active | Toxic | Active | Active | Active | inactive | inhibition (A549): inactive; inhibition (MEF [11]): Active; inhibition (MEF [12]): inactive; inhibition (MEF [13]): inactive; inhibition (MEF [14]): inactive; inhibition (MEF [15]): inactive; inhibition [16]: inactive; inhibition [17]: inactive; inhibition [18]: inactive; inhibition [19]: inactive; inhibition [20]: inactive; inhibition [21]: inactive; inhibition [22]: inactive; inhibition [23]: inactive; inhibition [24]: inactive
